From patent US8501940B2, “Tetrahydrocinnoline derivatives” (Hoffmann-La Roche Inc., priority 2008, dated 2013)

molecular target: T1, human 11beta-HSD1 (Homo sapiens, UniProt P28845); assay: Microsome assay (cortisone to cortisol conversion, ELISA detection); assay type: biochemical; conditions: microsomes from HEK293 cells transiently expressing human 11beta-HSD1; Cortisone 50-200 nM, NADPH 1 mM; 60 min at 37° C.; cortisol by ELISA; read-out: h 11-beta-HSD 1 IC50
T1 construct: made in house; host or cells: HEK293 cells (ATCC CRL-1573), transient transfection with a pcDNA3 construct; microsomal fraction used
Procedure: The cDNA encoding the human 11beta-HSD1 protein was cloned into the expression vector pcDNA3 (Stratagene). This construct (for details see Alex Odermatt et al.; J Biol Chem., 1999, Vol. 274, Issue 40, 28762-28770) was used to transiently express the protein in HEK293 cells (ATCC number: CRL-1573, described in Graham, F. L., Smiley, J., Russell, W. C., Nairn, R.; (1977)) using lipofectamine. 48 h after transfection cells were washed twice with ice-cold PBS (Phosphate buffered Saline). To 1 volume of cell suspension in PBS 2 volumes of ice-cold lysis buffer (50 mM Tris; pH7.5; 1 mM EDTA; 100 mM NaCl) were added. The cells were lysed by Potter-homogenization (20 strokes). The resulting homogenate was sonicated with a tip sonicator (10% output; 2×30 sec.) and cleared by a low speed centrifugation (10 min×9000 g; 4° C.). The microsomal fraction was collected by a high speed centrifugation (60 min×110,000 g). The resulting pellet was resuspended in storage buffer (20 mM Tris pH 7.5; 1 mM EDTA; 10% Glycerol) and the centrifugation was repeated. The resulting pellet containing the microsomal fraction was again taken up into storage buffer and aliquots were kept frozen in liquid Nitrogen until use.
Microsomes isolated from HEK293 cells transiently expressing human 11beta-HSD1 (for details see above) were incubated in assay buffer (100 mM NaCl; 1 mM EDTA; 1 mM EGTA; 1 mM MgCl; 250 mM Sucrose; 20 mM Tris pH 7.4; Cortisone 50-200 nM and NADPH 1 mM) together with different concentrations of test substances. After 60 min. of incubation at 37° C. the assay was stopped by heating to 80° C. (5 min.) and by addition of the inhibitor Carbenoxolone (1 uM). The amount of Cortisol produced in this assay was determined using a commercially available, ELISA-based Cortisol-detection kit (Distributed by Assay Design, Inc.). Inhibitors were characterized by there IC50 values, e.g. the concentration at which the production of cortisol was 50% reduced.

T1 sequence (P28845 whole entry): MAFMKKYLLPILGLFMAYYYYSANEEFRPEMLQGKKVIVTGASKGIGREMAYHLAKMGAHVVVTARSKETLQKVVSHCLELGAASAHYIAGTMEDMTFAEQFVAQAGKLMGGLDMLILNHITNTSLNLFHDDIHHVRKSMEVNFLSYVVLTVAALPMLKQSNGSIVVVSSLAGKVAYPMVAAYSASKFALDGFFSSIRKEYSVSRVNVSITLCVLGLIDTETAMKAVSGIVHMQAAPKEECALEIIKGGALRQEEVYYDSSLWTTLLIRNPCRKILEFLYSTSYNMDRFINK

Compound | IC50 [pM]
Cc1c(-c2cc3c(nn2)C2CCC3C23CC3)cnn1C(C)(C)C (stereo not drawn) [Example 23, (5′RS,8′SR)-3′-(1-tert-butyl-5-methyl-1H-pyrazol-4-yl)-5′,6′,7′,8′-tetrahydrospiro[cyclopropane-1,9′-[1′,2′]diaza[5′,8′]methanocinnoline]] | 95
Fc1ccc(-c2cc3c(nn2)C2CCC3CC2)c(C(F)(F)F)c1 [Example 25, 3-[4-fluoro-2-(trifluoromethyl)phenyl]-5,6,7,8-tetrahydro-5,8-ethanocinnoline] | 1
Fc1ccc(-c2cc3c(nn2)C2CCC3C23CCCC3)c(Cl)c1 (stereo not drawn) [Example 28, (5′RS,8′SR)-3′-(2-chloro-4-fluorophenyl)-5′,6′,7′,8′-tetrahydrospiro[cyclopentane-1,9′-[1′,2′]diaza[5′,8′]methanocinnoline]] | 1
Cc1ccccc1-c1cc2c(nn1)C1CCC2C12CCCC2 (stereo not drawn) [Example 29, (5′RS,8′SR)-3′-(2-methylphenyl)-5′,6′,7′,8′-tetrahydrospiro[cyclopentane-1,9′-[1′,2′]diaza[5′,8′]methanocinnoline]] | 1
(5′RS,8′SR)-3′-(2-methylphenyl)-5′,6′,7′,8′-tetrahydrospiro[cyclopropane-1,9′-[1′,2′]diaza[5′,8′]methanocinnoline] [Example 26] | 5

Further lines, results first:

IC50 [pM] | Compound
62 | Cc1c(-c2cc3c(nn2)C2CCC3C23CCCC3)cnn1-c1ccccc1 (stereo not drawn) [Example 30, (5′RS,8′SR)-3′-(5-methyl-1-phenyl-1H-pyrazol-4-yl)-5′,6′,7′,8′-tetrahydrospiro[cyclopentane-1,9′-[1′,2′]diaza[5′,8′]methanocinnoline]]
40 | FC(F)(F)c1ccc(Cl)cc1-c1cc2c(nn1)C1CCC2C12CC2 (stereo not drawn) [Example 24, (5′RS,8′SR)-3′-[5-chloro-2-(trifluoromethyl)phenyl]-5′,6′,7′,8′-tetrahydrospiro[cyclopropane-1,9′-[1′,2′]diaza[5′,8′]methanocinnoline]]
13 | Cc1c(-c2cc3c(nn2)C2CCC3C23CCCC3)cnn1C(C)(C)C (stereo not drawn) [Example 31, (5′RS,8′SR)-3′-(1-tert-butyl-5-methyl-1H-pyrazol-4-yl)-5′,6′,7′,8′-tetrahydrospiro[cyclopentane-1,9′-[1′,2′]diaza[5′,8′]methanocinnoline]]
6 | FC(F)(F)c1ccc(Cl)cc1-c1cc2c(nn1)C1CCC2C12CCCC2 (stereo not drawn) [Example 32, (5′RS,8′SR)-3′-[5-chloro-2-(trifluoromethyl)phenyl]-5′,6′,7′,8′-tetrahydrospiro[cyclopentane-1,9′-[1′,2′]diaza[5′,8′]methanocinnoline]]
1 | Fc1ccc(-c2cc3c(nn2)C2CCC3C23CCCC3)c(C(F)(F)F)c1 (stereo not drawn) [Example 27, (5′RS,8′SR)-3′-[4-fluoro-2-(trifluoromethyl)phenyl]-5′,6′,7′,8′-tetrahydrospiro[cyclopentane-1,9′-[1′,2′]diaza[5′,8′]methanocinnoline]]

test system: men; assay: not given; conditions: treatment with carbenoxolone in men; cited from earlier work

Compound | insulin sensitivity
CC1(C)[C@@H](OC(=O)CCC(=O)O)CC[C@]2(C)[C@H]3C(=O)C=C4[C@@H]5C[C@@](C)(C(=O)O)CC[C@]5(C)CC[C@@]4(C)[C@]3(C)CC[C@@H]12 [carbenoxolone] | increase in insulin sensitivity
